For the assay, the system named is Escherichia coli strain ATCC25922. Nature of the assay: standard microdilution assay to determine minimum inhibitory concentrations (MICs). The note with it: for MIC: Escherichia coli, ATCC25922, Escherichia coli strain ATCC25922, microdilution, read-out: E. coli ATCC25922 MIC; for E. coli ATCC25922 MIC: Escherichia coli strain ATCC25922, microdilution. The assay is classed as cell-based. An outline of the steps:
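E. coli strain ATCC25922 tested per CLSI microdilution methodology (about 100 microliters per well) to find minimum inhibitory concentrations. Activity scored categorically at a 16 micrograms/ml threshold.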

The source of these data is patent publication US9193731B2, “Antimicrobial compounds and methods of making and using the same” (Melinta Therapeutics, Inc., priority 2009, dated 2015).

A value given as a limit tells only on which side of the number the result lay.

`NCCCNCc1ccc(-c2cn3cc(-c4ccc(Br)cc4)[nH]c3nc2=O)cc1` [Compound 617, 6-{4-[(3-Amino-propylamino)-methyl]-phenyl}-2-(4-bromo-phenyl)-1H-imidazo[1,2-a]pyrimidin-7-one]: the MIC (as a rule, the least concentration at which growth counts as inhibited) was over 16 µg/mL. As for `CC(C)(N)c1cc2cn(-c3ccc(CNCCCN)cc3)c(=O)nc2[nH]1` [Compound 625], the MIC is over 16 µg/mL. With `NCCCNCc1ccc(-n2cc3cc(CCC4CCCCC4)[nH]c3nc2=O)cc1` [Compound 609], the minimum inhibitory concentration (MIC) is over 16 µg/mL. `NCCCNCc1ccc(-n2cc3cc(C4C[C@@H](N)[C@@H](CO)O4)[nH]c3nc2=O)cc1` (some centres unmarked) [Compound 1246]: the minimum inhibitory concentration (MIC) is under 16 µg/mL. Turning to `N=C(N)NCCCN1CC=C(n2cc3cc(-c4ccc(S(=O)(=O)N(CCCC5CCCC5)C5CCNCC5)cc4)[nH]c3nc2=O)CC1` [Compound 967], the “E. coli ATCC25922 MIC” value is reported as “+ (a “+” indicates that the compound has an MIC value of 16 micrograms/ml or less)”. For the compound `N=C(N)NCCCNC(=O)c1ccc(-n2cc3cc(-c4cccc(CCCCN)c4)[nH]c3nc2=O)cc1` [Compound 1433], the “E. coli ATCC25922 MIC” value is recorded as “+ (a “+” indicates that the compound has an MIC value of 16 micrograms/ml or less)”. As to `NCCCNCc1ccc(-n2cc3cc(-c4ccsc4)[nH]c3nc2=O)cc1` [Compound 612], the MIC is over 16 µg/mL.

For `NCc1ccc(-n2cc3cc(-c4cccc(OCC(F)(F)CN)c4)[nH]c3nc2=O)cc1` [Compound 1436], the MIC is over 16 µg/mL. On to `N=C(N)NCCCNCc1ccc(-n2cc3cc(-c4cccc(S(=O)(=O)N(CCc5ccc(F)cc5)C5CCNCC5)c4)[nH]c3nc2=O)cc1` [Compound 1172], for which the “E. coli ATCC25922 MIC” value was “+ (a “+” indicates that the compound has an MIC value of 16 micrograms/ml or less)”. Regarding `NC(N)=NCCC(=O)NCc1ccc(-n2cc3cc(-c4ccc(S(=O)(=O)N(CCOc5ccc(F)cc5)C5CCNCC5)cc4)[nH]c3nc2=O)cc1` [Compound 1196], the “E. coli ATCC25922 MIC” value is reported as “− (a “−” indicates that the compound has an MIC value greater than 16 micrograms/ml)”. `N=C(N)NCCCNCc1ccc(-n2cc3cc(CN4CCS(=O)(=O)CC4)[nH]c3nc2=O)cc1` [Compound 628]: the MIC was over 16 µg/mL. Regarding `COc1ccc(CN(C2CCNCC2)S(=O)(=O)c2ccc(-c3cc4cn(-c5ccc(CNCCCNC(=N)N)cc5)c(=O)nc4[nH]3)cc2)cc1[N+](=O)[O-]` [Compound 787], the “E. coli ATCC25922 MIC” value is “+ (a “+” indicates that the compound has an MIC value of 16 micrograms/ml or less)”.

Take `N=C(N)NCCCNCc1ccc(-n2cc3cc(-c4cccc(S(=O)(=O)NC5CCNCC5)c4)[nH]c3nc2=O)cc1` [Compound 836]: the MIC is under 16 µg/mL.

Take `Cc1ccn(CCCN(C2CCNCC2)S(=O)(=O)c2cccc(-c3cc4cn(-c5ccc(C(N)=O)cc5)c(=O)nc4[nH]3)c2)n1` [Compound 1126]: the MIC is over 16 µg/mL. In the case of `NCCCOc1ccccc1-c1cc2cn(-c3ccc(CN)cc3)c(=O)nc2[nH]1` [Compound 1106], the minimum inhibitory concentration (MIC) is over 16 µg/mL.

In the case of `N=C(N)NCCCNCc1ccc(-n2cc3cc(CCS(=O)(=O)CCN)[nH]c3nc2=O)cc1` [Compound 1189], the minimum inhibitory concentration (MIC) was under 16 µg/mL. Regarding `CNCCCOc1cccc(-c2cc3cn(-c4ccc(CNCCCNC(=N)N)cc4)c(=O)nc3[nH]2)c1` [Compound 1221], the minimum inhibitory concentration (MIC) was under 16 µg/mL. For `NCc1ccc(-n2cc3cc(-c4cccc(S(=O)(=O)N(CCC(N)=O)C5CCNCC5)c4)[nH]c3nc2=O)cc1` [Compound 1249], the MIC is over 16 µg/mL. In the case of `N=C(N)NCCCNCc1ccc(-n2cc3cc(CCNC4CNC4)[nH]c3nc2=O)cc1` [Compound 1398], the “E. coli ATCC25922 MIC” value is reported as “+ (a “+” indicates that the compound has an MIC value of 16 micrograms/ml or less)”. Turning to `N=C(N)NCCCNCc1ccc(-n2cc3cc(-c4cc(CCCCN)cc(C(F)(F)F)c4)[nH]c3nc2=O)cc1` [Compound 2029a], the MIC is under 16 µg/mL.

Consider `NCCCCOc1ccc(-c2cn3cc(-c4ccc(Br)cc4)[nH]c3nc2=O)cc1` [Compound 810], for which the minimal inhibitory concentration (MIC) is over 16 µg/mL. As to `NCCCNCc1ccc(-n2cc3cc(-c4ccccn4)[nH]c3nc2=O)cc1` [Compound 620], the minimum inhibitory concentration (MIC) is over 16 µg/mL.

As to `N=C(N)NCCCNCc1ccc(-n2cc3cc(-c4cc(OCC(F)CN)cc(-c5cccnc5)c4)[nH]c3nc2=O)cc1` (centres unmarked) [Compound 2001a], the “E. coli ATCC25922 MIC” value was “− (a “−” indicates that the compound has an MIC value greater than 16 micrograms/ml)”. For `NCCCCN1CC(n2cc3c(nc2=O)[nH]c2ccccc23)C1` [Compound 590], the minimal inhibitory concentration (MIC) was over 16 µg/mL. As to `N=C(N)NCCCNCc1ccc(-n2cc3cc(-c4ccc(S(=O)(=O)C[C@@H](O)CN5CCCCC5)cc4)[nH]c3nc2=O)cc1` [Compound 1171], the “E. coli ATCC25922 MIC” value is “+ (a “+” indicates that the compound has an MIC value of 16 micrograms/ml or less)”. Turning to `NCCCNCc1ccc(-n2cc3cc(CC4CCCCC4)[nH]c3nc2=O)cc1` [Compound 622], the MIC is over 16 µg/mL. For `N=C(N)NCCCNCc1ccc(-n2cc3cc(-c4cccc(C(NCCN)C(F)(F)F)c4)[nH]c3nc2=O)cc1` (centres unmarked) [Compound 2025a], the “E. coli ATCC25922 MIC” value was “+ (a “+” indicates that the compound has an MIC value of 16 micrograms/ml or less)”. Turning to `NCCCNCc1ccc(-n2cc3cc(-c4ccc(S(=O)(=O)N(Cc5ccc(Cl)c(Cl)c5)C5CCNCC5)cc4)[nH]c3nc2=O)cc1` [Compound 697], the MIC was under 16 µg/mL. For the compound `NCCCNCc1ccc(-n2cc3cc(-c4cc(C(=O)N5CCC(C(N)=O)CC5)cc(N5CCNCC5)c4)[nH]c3nc2=O)cc1` [Compound 910], the “E. coli ATCC25922 MIC” value was “− (a “−” indicates that the compound has an MIC value greater than 16 micrograms/ml)”.

For the compound `N=C(N)NCCCNCc1ccc(-n2cc3cc(-c4cc(C(=O)NCC(F)(F)F)cc(N5CCNCC5)c4)[nH]c3nc2=O)cc1` [Compound 971], the “E. coli ATCC25922 MIC” value is recorded as “+ (a “+” indicates that the compound has an MIC value of 16 micrograms/ml or less)”. For the compound `N=C(N)NCCCNCc1ccc(-n2cc3cc(-c4cc(C(=O)Nc5nc(C(F)(F)F)cs5)cc(N5CCNCC5)c4)[nH]c3nc2=O)cc1` [Compound 1061], the “E. coli ATCC25922 MIC” value is “+ (a “+” indicates that the compound has an MIC value of 16 micrograms/ml or less)”.

Take `N=C(N)NCCCNCc1ccc(-n2cc3cc(-c4ccc(S(=O)(=O)CCN)cc4)[nH]c3nc2=O)cc1` [Compound 1130]: the “E. coli ATCC25922 MIC” value is listed as “+ (a “+” indicates that the compound has an MIC value of 16 micrograms/ml or less)”. Consider `CO[C@@H](CN)COc1cccc(-c2cc3cn(-c4ccc(CN)cc4)c(=O)nc3[nH]2)c1` [Compound 1444], for which the minimal inhibitory concentration (MIC) is over 16 µg/mL.

`N=C(N)NCCCNCc1ccc(-n2cc3cc(-c4ccc(S(=O)(=O)C5CCNCC5)cc4)[nH]c3nc2=O)cc1` [Compound 1180]: the MIC is under 16 µg/mL. For the compound `O=c1nc2[nH]c(-c3ccc(S(=O)(=O)NC4CCNCC4)cc3)cc2cn1-c1cccc(OCc2c[nH]cn2)c1` [Compound 1188], the minimal inhibitory concentration (MIC) was over 16 µg/mL. `CC1CN(C(=O)c2ccc(-c3cn4cc(-c5ccc(CNCCCN)cc5)c(=O)nc4[nH]3)cc2)CCN1` (centres unmarked) [Compound 821]: the “E. coli ATCC25922 MIC” value is on record as “+ (a “+” indicates that the compound has an MIC value of 16 micrograms/ml or less)”. As for `NCCCNCc1ccc(-c2cn3cc(-c4ccc(C(=O)N5CC6CC5CN6)cc4)[nH]c3nc2=O)cc1` (centres unmarked) [Compound 742], the MIC is under 16 µg/mL. As to `CC(C)(N)CCOc1cccc(-c2cc3cn(-c4ccc(CNCCCNC(=N)N)cc4)c(=O)nc3[nH]2)c1` [Compound 1410], the “E. coli ATCC25922 MIC” value is reported as “+ (a “+” indicates that the compound has an MIC value of 16 micrograms/ml or less)”.
